Test: recombinant UMI read abundance after kanamycin selection (control-corrected) (log10(CPM+1)); higher = more efficient recombination; extreme values may be limits of the assay; sequences stand for … in AGTGCAGAGAAAATCGGCCAGTTTTCTCTGCCTGCAGTCCGCATGCCGTGGGACCCCTTGGGTTCTAACCTGTTGCCTAGATTTATGCAGCGGACTGCCTTTCTCCCAAAGTGATAAACCGG…AGGTTGGTTTCACT; site = the 11-nt donor
In short: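 The measure is log10(CPM+1) for recombinant UMIs. These were PCR-amplified across the donor–target junction and sequenced after Escherichia coli carrying a donor and donor-binding-loop pair library and a target plasmid with T7-inducible IS621 bridge recombinase was plated on IPTG (0.07 mM) plus kanamycin or unselected. CPM were averaged over two replicates and scaled by control-derived factors.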
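Also: IS621 bridge recombinase in Escherichia coli cells against a fixed T5 target plasmid.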

Question: With “GCTACTGCATGGACCGGTTTTCCCGGTAATCCGTATTTGCC (site GTTACTGCTGG)” as the sequence, how does the “recombinant UMI read abundance (log10)” value read?
Answer: 0.815

Question: With “GCTACTGCATGGACCGGTTTTCCCGGTAATCCGTATTTGCC (site TCTACTGCTGG)” as the sequence, how does the “recombinant UMI read abundance (log10)” value read?
Answer: 0.424

Question: For “GCTAGCCCATGGACCGGTTTTCCCGGTAATCCGTATTTGAT (site GCTAGCCCTAT)”, which “recombinant UMI read abundance (log10)” value is on record?
Answer: 0.197

Question: For “GCTAGCCCATGGACCGGTTTTCCCGGTAATCCGTATTTGAT (site GCTCGCCCTAT)”, which “recombinant UMI read abundance (log10)” value is on record?
Answer: 0.0134

Question: With “GCTAGCCCATGGACCGGTTTTCCCGGTAATCCGTATTTGAT (site GCTGGCCCTAT)” as the sequence, how does the “recombinant UMI read abundance (log10)” value read?
Answer: 0.00566

Question: Which “recombinant UMI read abundance (log10)” value does the source give for “GCTAGCCCATGGACCGGTTTTCCCGGTAATCCGTATTTGAT (site GCTTGCCCTAT)” here?
Answer: 0.00951

Question: With “GCTCAGGCATGGACCGGTTTTCCCGGTAATCCGTATTTGTA (site GCTCAGGCTTA)” as the sequence, how does the “recombinant UMI read abundance (log10)” value read?
Answer: 1.71

Question: With “GCTCGAGCATGGACCGGTTTTCCCGGTAATCCGTATTTGCA (site GATCGAGCTTG)” as the sequence, how does the “recombinant UMI read abundance (log10)” value read?
Answer: 0.25

Question: For “GCTCGAGCATGGACCGGTTTTCCCGGTAATCCGTATTTGCA (site GCTCGAGCTTG)”, which “recombinant UMI read abundance (log10)” value is on record?
Answer: 2.67

Question: Which “recombinant UMI read abundance (log10)” value does the source give for “GCTCGAGCATGGACCGGTTTTCCCGGTAATCCGTATTTGCA (site GGTCGAGCTTG)” here?
Answer: 0.679

Question: Which “recombinant UMI read abundance (log10)” value does the source give for “GCTCGAGCATGGACCGGTTTTCCCGGTAATCCGTATTTGCA (site GTTCGAGCTTG)” here?
Answer: 0.655

Question: Which “recombinant UMI read abundance (log10)” value does the source give for “GCTCGATCATGGACCGGTTTTCCCGGTAATCCGTATTTGCA (site GCTCGATCTTG)” here?
Answer: 2.07

Question: Which “recombinant UMI read abundance (log10)” value does the source give for “GCTCGCGCATGGACCGGTTTTCCCGGTAATCCGTATTTGGT (site GCTCGCGCTAC)” here?
Answer: 0.984

Question: Which “recombinant UMI read abundance (log10)” value does the source give for “GCTCGGGCATGGACCGGTTTTCCCGGTAATCCGTATTTGAG (site GCTCGGGCTCT)” here?
Answer: 0.866

Question: Which “recombinant UMI read abundance (log10)” value does the source give for “GCTCTAGCATGGACCGGTTTTCCCGGTAATCCGTATTTGAC (site GCTCTAGCTGT)” here?
Answer: 1.67

Question: With “GCTCTCGCATGGACCGGTTTTCCCGGTAATCCGTATTTGTT (site GCTCTCGCTAA)” as the sequence, how does the “recombinant UMI read abundance (log10)” value read?
Answer: 0.534

Question: With “GCTGAACCATGGACCGGTTTTCCCGGTAATCCGTATTTGTC (site GCTGAACCTGA)” as the sequence, how does the “recombinant UMI read abundance (log10)” value read?
Answer: 0

Question: With “GCTGCGTCATGGACCGGTTTTCCCGGTAATCCGTATTTGGT (site GCTGCGTCTAC)” as the sequence, how does the “recombinant UMI read abundance (log10)” value read?
Answer: 0.732

Question: Which “recombinant UMI read abundance (log10)” value does the source give for “GCTGCTCCATGGACCGGTTTTCCCGGTAATCCGTATTTGCT (site GCTGCTCCTAG)” here?
Answer: 0.276

Question: For “GCTGCTGCATGGACCGGTTTTCCCGGTAATCCGTATTTGCC (site GCTACTGCTGG)”, which “recombinant UMI read abundance (log10)” value is on record?
Answer: 0.315

Question: For “GCTGCTGCATGGACCGGTTTTCCCGGTAATCCGTATTTGCC (site GCTCCTGCTGG)”, which “recombinant UMI read abundance (log10)” value is on record?
Answer: 0

Question: For “GCTGCTGCATGGACCGGTTTTCCCGGTAATCCGTATTTGCC (site GCTGCTGCTGG)”, which “recombinant UMI read abundance (log10)” value is on record?
Answer: 1.18

Question: With “GCTGCTGCATGGACCGGTTTTCCCGGTAATCCGTATTTGCC (site GCTTCTGCTGG)” as the sequence, how does the “recombinant UMI read abundance (log10)” value read?
Answer: 0

Question: With “GCTGCTTCATGGACCGGTTTTCCCGGTAATCCGTATTTGTA (site GCTGCTTCTTA)” as the sequence, how does the “recombinant UMI read abundance (log10)” value read?
Answer: 0.981

Question: With “GCTGGAGCATGGACCGGTTTTCCCGGTAATCCGTATTTGAG (site GCTGGAGCTCT)” as the sequence, how does the “recombinant UMI read abundance (log10)” value read?
Answer: 1.41

Question: Which “recombinant UMI read abundance (log10)” value does the source give for “GCTGGCGCATGGACCGGTTTTCCCGGTAATCCGTATTTGTA (site GCTGGCGCTTA)” here?
Answer: 0.982

Question: For “GCTGTTACATGGACCGGTTTTCCCGGTAATCCGTATTTGCG (site GCTGTTACTCG)”, which “recombinant UMI read abundance (log10)” value is on record?
Answer: 1.48

Question: Which “recombinant UMI read abundance (log10)” value does the source give for “GCTTAGTCATGGACCGGTTTTCCCGGTAATCCGTATTTGTT (site GCTTAGTCTAA)” here?
Answer: 2.37

Question: With “GCTTGCACATGGACCGGTTTTCCCGGTAATCCGTATTTGAT (site GCTTGCACTAT)” as the sequence, how does the “recombinant UMI read abundance (log10)” value read?
Answer: 1.16

Question: With “GCTTGCACATGGACCGGTTTTCCCGGTAATCCGTATTTGAT (site GCTTGCCCTAT)” as the sequence, how does the “recombinant UMI read abundance (log10)” value read?
Answer: 0.00585

Question: With “GCTTGCACATGGACCGGTTTTCCCGGTAATCCGTATTTGAT (site GCTTGCGCTAT)” as the sequence, how does the “recombinant UMI read abundance (log10)” value read?
Answer: 0.0165

Question: For “GCTTGCACATGGACCGGTTTTCCCGGTAATCCGTATTTGAT (site GCTTGCTCTAT)”, which “recombinant UMI read abundance (log10)” value is on record?
Answer: 0.396

Question: For “GCTTGCCCATGGACCGGTTTTCCCGGTAATCCGTATTTGCT (site GCTTGCCCTAA)”, which “recombinant UMI read abundance (log10)” value is on record?
Answer: 0.0261

Question: With “GCTTGCCCATGGACCGGTTTTCCCGGTAATCCGTATTTGCT (site GCTTGCCCTAC)” as the sequence, how does the “recombinant UMI read abundance (log10)” value read?
Answer: 0.00338

Question: With “GCTTGCCCATGGACCGGTTTTCCCGGTAATCCGTATTTGCT (site GCTTGCCCTAG)” as the sequence, how does the “recombinant UMI read abundance (log10)” value read?
Answer: 0.858

Question: For “GCTTGCCCATGGACCGGTTTTCCCGGTAATCCGTATTTGCT (site GCTTGCCCTAT)”, which “recombinant UMI read abundance (log10)” value is on record?
Answer: 0.0783

Question: Which “recombinant UMI read abundance (log10)” value does the source give for “GCTTGCGCATGGACCGGTTTTCCCGGTAATCCGTATTTGGT (site GCTTGCGCTAC)” here?
Answer: 0.514

Question: Which “recombinant UMI read abundance (log10)” value does the source give for “GCTTGCTCATGGACCGGTTTTCCCGGTAATCCGTATTTGAT (site GCTTGCACTAT)” here?
Answer: 0.00386

Question: With “GCTTGCTCATGGACCGGTTTTCCCGGTAATCCGTATTTGAT (site GCTTGCCCTAT)” as the sequence, how does the “recombinant UMI read abundance (log10)” value read?
Answer: 0

Question: With “GCTTGCTCATGGACCGGTTTTCCCGGTAATCCGTATTTGAT (site GCTTGCGCTAT)” as the sequence, how does the “recombinant UMI read abundance (log10)” value read?
Answer: 0.00706

Question: With “GCTTGCTCATGGACCGGTTTTCCCGGTAATCCGTATTTGAT (site GCTTGCTCTAT)” as the sequence, how does the “recombinant UMI read abundance (log10)” value read?
Answer: 1.46

Question: Which “recombinant UMI read abundance (log10)” value does the source give for “GCTTGTCCATGGACCGGTTTTCCCGGTAATCCGTATTTGAT (site GCTTGACCTAT)” here?
Answer: 0.00264

Question: For “GCTTGTCCATGGACCGGTTTTCCCGGTAATCCGTATTTGAT (site GCTTGCCCTAT)”, which “recombinant UMI read abundance (log10)” value is on record?
Answer: 0.021

Question: For “GCTTGTCCATGGACCGGTTTTCCCGGTAATCCGTATTTGAT (site GCTTGGCCTAT)”, which “recombinant UMI read abundance (log10)” value is on record?
Answer: 0

Question: For “GCTTGTCCATGGACCGGTTTTCCCGGTAATCCGTATTTGAT (site GCTTGTCCTAT)”, which “recombinant UMI read abundance (log10)” value is on record?
Answer: 0

Question: For “GCTTGTTCATGGACCGGTTTTCCCGGTAATCCGTATTTGAA (site GCTTGTTCTTT)”, which “recombinant UMI read abundance (log10)” value is on record?
Answer: 0.489

Question: For “GCTTGTTCATGGACCGGTTTTCCCGGTAATCCGTATTTGCT (site GCTTGTTCTAG)”, which “recombinant UMI read abundance (log10)” value is on record?
Answer: 1.84

Question: Which “recombinant UMI read abundance (log10)” value does the source give for “GGAAACCCATGGACCGGTTTTCCCGGTAATCCGTATTTGCC (site GGAAACCCTGG)” here?
Answer: 0

Question: Which “recombinant UMI read abundance (log10)” value does the source give for “GGAACGACATGGACCGGTTTTCCCGGTAATCCGTATTTGAT (site GGAACGACTAT)” here?
Answer: 1.43

Question: For “GGAATGCCATGGACCGGTTTTCCCGGTAATCCGTATTTGCA (site GGAATGCCTTG)”, which “recombinant UMI read abundance (log10)” value is on record?
Answer: 0

Question: With “GGACAGCCATGGACCGGTTTTCCCGGTAATCCGTATTTGCA (site GGACAGCCTTG)” as the sequence, how does the “recombinant UMI read abundance (log10)” value read?
Answer: 1.07

Question: For “GGACCATCATGGACCGGTTTTCCCGGTAATCCGTATTTGTC (site GGACCATCTGA)”, which “recombinant UMI read abundance (log10)” value is on record?
Answer: 2.27

Question: Which “recombinant UMI read abundance (log10)” value does the source give for “GGACCGGCATGGACCGGTTTTCCCGGTAATCCGTATTTGGG (site GGACCGGCTCC)” here?
Answer: 0.0163

Question: Which “recombinant UMI read abundance (log10)” value does the source give for “GGACTCACATGGACCGGTTTTCCCGGTAATCCGTATTTGTG (site GGACTCACTCA)” here?
Answer: 0.00312

Question: With “GGACTTCCATGGACCGGTTTTCCCGGTAATCCGTATTTGAA (site GGACTTCCTTT)” as the sequence, how does the “recombinant UMI read abundance (log10)” value read?
Answer: 1.42

Question: With “GGAGACTCATGGACCGGTTTTCCCGGTAATCCGTATTTGGC (site GGAGACTCTGC)” as the sequence, how does the “recombinant UMI read abundance (log10)” value read?
Answer: 0.784

Question: With “GGAGACTCATGGACCGGTTTTCCCGGTAATCCGTATTTGTG (site GGAGACTCTCA)” as the sequence, how does the “recombinant UMI read abundance (log10)” value read?
Answer: 1.74

From the supplement of paper PMC11208160
